Broadly, the melting point is the temperature of the solid-liquid transition. As to `Cc1nccn1-c1nc(-c2ccc(Cl)cc2)c(CCCN2C(=O)CNC2=O)o1`, the melting point is 197 to 198 °C.

Regarding `CCOC(=O)C1=C(COC(C)=O)Nc2nc(N3CCOCC3)nc(N3CCOCC3)c2C1c1cccc(Cl)c1Cl` (centres undefined), the melting point was found to be 161 °C.

Turning to `CCOC(=O)COc1cc(F)c(-c2nn(C)c(C(F)(F)F)c2Cl)cc1[N+](=O)[O-]`, the melting point lay in the range of 95 to 96 °C.

Consider `O=C(O)C(=O)Nc1ccc2c(=O)n3c(nc2c1)C(=Cc1ccccc1)CC3`, for which the melting point lay in the range of 198 to 200 °C.

In turn, `CC1(C(=O)NCCc2cccs2)CC1` returned a melting point of 86 to 88 °C.

`O=c1[nH]c2ccccc2c(=O)n1CCN1CCC(c2c[nH]c3cc(F)ccc23)CC1` yielded a melting point of 301 °C.

Turning to `C=C(C(=O)c1ccc(C(=O)NCCN2CCOCC2)cc1)c1cc(OC)c(OC)c(-c2cccs2)c1`, the melting point was 84 to 87 °C.

Compound `CCc1cc(C)cc(C)c1NC(=S)NC(C)(C)CC` had a melting point of 105 to 107 °C.

On to `Cc1ccc(F)cc1C(=O)Nc1ccc(C(=O)N2Cc3ccccc3Oc3ncccc32)cn1`, for which the melting point lay in the range of 187 to 189 °C.

As to `CC(C)(O)Cn1cnc2c(Cl)nc3ccccc3c21`, the melting point was in the range of 196 to 199 °C.

As to `Cc1ccc(-c2nn(-c3ccccc3C)c(N)c2C(N)=O)cc1`, the melting point lay in the range of 133 to 135 °C.

The compound `CC1=C(C(=O)OCCN(C)Cc2ccc(Cl)cc2)C(c2cccc([N+](=O)[O-])c2)C(C(=O)OCC2CC2)=C(C)N1` (centres undefined) had a melting point of 115 to 116 °C.

On to `Nc1nc(-c2cccc3ccccc23)cc2ccc(Cl)cc12`, for which the melting point lay within 180 to 181 °C.

The compound `O=C(NCCc1ccccc1)Nc1ccc([N+](=O)[O-])cc1O` registered a melting point of 189 °C.

On to `CN(C)C(=O)C(O)(C(=O)O)c1ccc(Cl)c(Cl)c1` (centres undefined), for which the melting point is 158 to 160 °C.

On to `Cc1cccc(-c2c[nH]nc2-c2ccnc(-c3ccc(OCCN4CCCC4)cc3)c2)n1`, for which the melting point was found to be 96 °C.

Compound `CON(Cc1ccc(Cl)c(Cl)c1)C(=O)C1=C(O)C(=O)N(C)C1` returned a melting point of 149 °C.

Regarding `CS(=O)(=O)c1ccc(-c2oc(CO)cc(=O)c2Oc2ccc(F)cc2)cc1`, the melting point was found to be 206 °C.

For the compound `COc1cc(C(=O)NC=NC(=O)ON(c2ccc(C)c(NC(=O)c3ccc(C=Cc4ccccc4)cc3)c2)C(C)(C)C)cc(OC)c1OC`, the melting point came out at 166 °C.

The compound `O=C(O)C=Cc1ccc2ccccc2c1` registered a melting point of 207 to 208 °C.

For the compound `O=C1Nc2ccccc2C12COc1ccc(F)cc12` (centres undefined), the melting point fell in the range of 224 to 226 °C.

For `CCCC1=CC(NC)=Nc2ccc(Cl)cc2C(c2ccccc2)=[N+]1[O-]`, the melting point was 104 to 106 °C.

With `Cc1cn(C2OC(COC(=O)c3ccccc3)C(OC(=O)c3ccccc3)C2F)c(=O)[nH]c1=O` (centres undefined), the melting point lay within 120 to 122 °C.

For the compound `CC(C)NC(=O)CCC(O)c1ccccc1` (centres undefined), the melting point was in the range of 131 to 135 °C.

On to `COc1ccccc1COc1ccc(S(=O)(=O)c2ccc(C)nc2Nc2cc(OC)c(OC)cc2Cl)cc1`, for which the melting point was 149 to 151 °C.

`Nc1nc(-c2ccc(Cl)cc2)c(CCC(=O)O)s1`: the melting point was 116 to 118 °C.

`NC(=O)CCCN(Cc1ccc(Cl)cc1)Cc1ccc(Cl)cc1` registered a melting point of 66 to 76 °C.

Consider `COc1ccc2c(c1)C=C(/C=C/C=C/C=C/C(=O)O)C(C)(C)O2`, for which the melting point was 154 to 156 °C.

Turning to `CCOc1ccc(F)cc1NC(=O)Nc1ccc(N2CCN(C(=O)OC(C)(C)C)CC2)cc1`, the melting point lay in the range of 168 to 169 °C.

Consider `Clc1ccc2ncc(Cl)nc2c1`, for which the melting point was 120 to 121 °C.

Compound `O=C1O[C@@H](Cn2ccnn2)CN1c1ccc(-c2ccc(C3=NOC(C(O)c4ccccc4)C3)nc2)c(F)c1` (some centres undefined) displayed a melting point of 182 °C.

Consider `Cn1c(C(F)(F)F)cc(=O)n(-c2cc(OC(=O)Oc3ccccc3)c(Cl)cc2F)c1=O`, for which the melting point fell in the range of 112 to 115 °C.

`CCCC(CCC)n1c(CC)nc2c1c(=O)n(C)c(=O)n2-c1c(OC)ccnc1C` yielded a melting point of 124 to 126 °C.

Compound `COC(=O)C(Cc1ccc(OCC(=O)Nc2ccc(Oc3ccc(C45CC6CC(CC(C6)C4)C5)cc3)cc2N(C)C(=O)OC(C)(C)C)cc1)OCc1ccc(F)cc1` (centres undefined) came in with a melting point of 52 to 56 °C.

On to `CSCCOc1ccc(-c2ccc3c(c2)C=C(C(=O)Nc2ccc(CN(C)C4CCOCC4)cc2)CCS3(=O)=O)cc1`, for which the melting point was 222 to 224 °C.

Regarding `Cc1cc(=O)oc2c1c(C)nn2CCO`, the melting point was in the range of 152 to 153 °C.

In the case of `COc1ccc(Br)cc1C(=O)C(Br)C(Br)c1cccc(Br)c1` (centres undefined), the melting point is 124 to 126 °C.

With `CC(=NO)C1=CCN(C)CC1`, the melting point was 166 to 168 °C.

In turn, `O=C1CCC(c2ccc3c(c2)NC(=O)CS3)=NN1` came in with a melting point of 299 to 302 °C.

`NC(=O)C1(c2cccc(Br)c2)CCOCC1` displayed a melting point of 245 to 247 °C.

The compound `CCOC(=O)Cc1cccc(Oc2ccccc2Cl)c1NS(C)(=O)=O` came in with a melting point of 145 to 149 °C.

For `COC(=O)c1ccc(Cl)cc1NC(=O)CSc1cccc(OC)c1`, the melting point is 72 to 73 °C.

Compound `Cc1cc(NC(=O)CC#N)nc(C)n1` had a melting point of 178 °C.

The compound `CN[C@@H](C)[C@@H]1CCN(c2c(F)cc3c(=O)[nH]c(=O)n(C4CC4)c3c2OC)C1` showed a melting point of 162 to 164 °C.

Regarding `COC(=O)c1n[nH]c(C(C)C)c1[N+](=O)[O-]`, the melting point fell in the range of 78 to 80 °C.

On to `CCOC(=O)Cc1cnc(N=C2SCC3Cc4ccccc4CN23)s1` (centres undefined), for which the melting point was 132 °C.

Compound `O=C(Nc1cccnc1)c1nnc2ccccc2c1O` returned a melting point of 326 to 328 °C.

With `CC(=NO)C(C)(C)NCC(O)CNC(C)(C)C(CCn1ccnc1[N+](=O)[O-])=NO` (centres undefined), the melting point fell in the range of 62 to 64 °C.

The compound `CC1OCCn2c1nc(C(=O)O)c(OCc1ccccc1)c2=O` (centres undefined) showed a melting point of 167 to 168 °C.

Consider `Cc1ccc(N2N=C3c4cc(C(C)O)sc4CCC3CC2=O)cc1` (centres undefined), for which the melting point lay in the range of 129 to 145 °C.

`Cc1nnc2sc3cc(Cl)ccc3n12`: the melting point was in the range of 186 to 188 °C.

Take `CC(=O)COc1cc2c(c(Cl)c1Cl)C(=O)C(C)(c1ccccc1)C2` (centres undefined): the melting point was 144 °C.

On to `CCS(=O)(=O)c1ccc(C(CC2CCCC2)C(=O)Nc2nccs2)cc1` (centres undefined), for which the melting point lay in the range of 178 to 179 °C.

For `OCc1ccc2c(Cl)ccnc2c1`, the melting point was in the range of 138 to 139 °C.

`COC(=O)C1Oc2ccccc2Cc2cccc(O)c2O1` (centres undefined) registered a melting point of 163 to 165 °C.

With `CC(=O)SCC(Cc1c(Cl)cccc1Cl)C(=O)NN1CCOCC1` (centres undefined), the melting point was determined as 175 °C.

For `COc1ccc2c(c1OCc1ccccc1)CCN(C=O)C2`, the melting point amounted to 118 °C.

Regarding `CCCn1c(=O)c(=O)[nH]c2cc([N+](=O)[O-])c(-n3ccc(=O)cc3)cc21`, the melting point is above 300 °C.

`CSc1cc(C(C)=O)ccc1OCCCN1CCC(c2noc3cc(F)ccc23)CC1`: the melting point was in the range of 150 to 152 °C.

In turn, `COc1ccc(C(=O)N(C)c2ccc(CO)cc2)cc1` gave a melting point of 85 to 90 °C.

In turn, `Nc1nc2c(s1)CCN(CC=Cc1cccc3ccccc13)CC2` yielded a melting point of 178 to 180 °C.

As to `COc1cc(F)c(C(O)C#N)cc1OC` (centres undefined), the melting point fell in the range of 112 to 114 °C.

The compound `Cc1ccnc(Cn2ccnc2)c1O` yielded a melting point of 170 to 172 °C.

`O=C1NCCC1=Cc1ccc(C2=NCCO2)cc1` returned a melting point of 258 to 262 °C.

`C=CCN(CC=C)c1ccc2[nH]c3cnc(C(=O)OCC)nc3c2c1` registered a melting point of 188 to 190 °C.

Turning to `COC1CCN(c2c(F)cc3c(=O)c(C(=O)O)cn4c3c2CCC4C)CC1` (centres undefined), the melting point fell in the range of 249 to 251 °C.

`O=CNc1cc(F)ccc1F`: the melting point fell in the range of 112 to 114 °C.

`O=P(O)(O)C(O)(CC(O)c1ccccc1)P(=O)(O)O` (centres undefined) returned a melting point of 132 °C.

`COC1C(CO)OC(n2c3ccc(C=O)cc3c3c4c(c5c6cc(C=O)ccc6[nH]c5c32)C(=O)NC4=O)C(O)C1O` (centres undefined): the melting point was above 300 °C.

`CSc1nc(=O)n(CCO)cc1F` showed a melting point of 161 to 162 °C.

`Cn1c(=O)c(-c2ccccc2Cl)cc2cnc(NC3C4CN(Cc5ccccc5)CC43)nc21` (centres undefined): the melting point was 92 to 94 °C.

In the case of `CC1(C)CN(C(=N)NC=C(C#N)C(=O)N(CC2CC2)c2cccc(C(F)(F)F)c2)C(=O)N1`, the melting point is 121 to 122 °C.

For `COc1nc2cc(F)c(Cl)c(N)c2nc1OC`, the melting point was in the range of 199 to 200 °C.

For the compound `N#Cc1ccc(-c2ncc(Br)cn2)cc1`, the melting point came to 222 °C.

As for `CNc1n[nH]c(=O)n1N=C(C)CC(C)C`, the melting point turned out to be 136 °C.

Take `c1ccc(-c2ccc3oc(COc4ccc(CCCn5ccnc5)cc4)nc3c2)cc1`: the melting point was 123 to 124 °C.

In the case of `CNC(=O)[C@H]1S[C@@H](n2cnc3c(NCc4cccc(I)c4)nc(Cl)nc32)[C@H](O)[C@@H]1O`, the melting point is 140 to 141 °C.

Take `CCCCc1nc2c(N)nc3ccccc3c2n1CCCCNS(=O)(=O)c1cccs1`: the melting point fell in the range of 138 to 142 °C.

Take `CCCCNc1nc(C)c(C(=O)c2ccc(N)c(N)c2)s1`: the melting point was in the range of 127 to 130 °C.

In turn, `O=C(c1ccccc1CBr)c1ccccc1CBr` registered a melting point of 113 to 114 °C.

`CN1CCN(C(=O)CN2CCN(C(=O)c3cc(C(F)(F)F)cc(C(F)(F)F)c3)[C@H](Cc3c[nH]c4ccccc34)C2)CC1` yielded a melting point of 105 to 108 °C.

`NC(=O)c1cnn2c(-c3cccc(F)c3)ccnc12` came in with a melting point of 247 to 249 °C.

As to `N#Cc1cc([N+](=O)[O-])ccc1N1CCC(NCCO)CC1`, the melting point was 115 °C.

`Cn1cc(-c2cc(F)c(F)c(OC3SCC(O)C(O)C3O)c2)cn1` (centres undefined) registered a melting point of 184 °C.

`O=C1CC(c2ccccc2)c2cccc(CCN3CCN(c4nsc5ccccc45)CC3)c2N1` (centres undefined) gave a melting point of 227 °C.

Turning to `C#CCN1C(=O)COc2ccc(C3CC(=O)C(C(CC)=NOCC)=C(O)C3)cc21` (centres undefined), the melting point lay within 100 to 102 °C.

With `FC(F)(F)c1cccc(CSc2nc3cnccc3[nH]2)c1`, the melting point was 148 to 150 °C.

`COc1ccc(Cc2nc3c(O)cccc3o2)cc1OC1CCCC1` returned a melting point of 172 to 181 °C.

As for `CCCNC(=S)NCCCn1c(CCOC)nc2c(N)nc3ccccc3c21`, the melting point is 172 to 173 °C.

These data come from a melting point compilation (Tetko et al.; mined from patent text by program, amines drawn as free bases though some values may be those of a salt).
